The values that follow come from US7504420B2, “Compounds which inhibit beta-secretase activity and methods of use” (CoMentis, Inc., priority 2005, dated 2009).

For one test, the target named is memapsin 2 (Homo sapiens, UniProt P56817). In words: Inhibition of memapsin 2 catalytic activity (Ki). As to conditions: memapsin 2, pH 4, 37° C.; read-out: M2K. In kind it is biochemical. In short, it runs like this:
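Run at 37 °C and pH 4: compound and enzyme pre-incubated 20 min before FS-2 fluorogenic substrate started hydrolysis,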

The target in a further test is cathepsin D (Homo sapiens, UniProt P07339). In words: Inhibition of cathepsin D catalytic activity (Ki). In kind it is biochemical. As to conditions: pH 4.0, 37° C., read-out: CDK.
Sequence of cathepsin D (P07339 65-412, species assumed): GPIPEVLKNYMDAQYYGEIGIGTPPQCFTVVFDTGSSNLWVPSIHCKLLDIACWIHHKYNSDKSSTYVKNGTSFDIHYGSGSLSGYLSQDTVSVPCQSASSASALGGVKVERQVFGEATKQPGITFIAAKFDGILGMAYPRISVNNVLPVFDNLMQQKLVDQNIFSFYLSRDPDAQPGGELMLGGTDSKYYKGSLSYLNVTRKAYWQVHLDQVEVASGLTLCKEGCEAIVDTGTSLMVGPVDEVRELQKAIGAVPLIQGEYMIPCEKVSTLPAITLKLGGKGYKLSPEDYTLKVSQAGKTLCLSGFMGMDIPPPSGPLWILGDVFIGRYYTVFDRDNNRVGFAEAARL
For a further test, the target named is T1, memapsin 1 (Homo sapiens, UniProt Q9Y5Z0).
T1 sequence (Q9Y5Z0 63-518): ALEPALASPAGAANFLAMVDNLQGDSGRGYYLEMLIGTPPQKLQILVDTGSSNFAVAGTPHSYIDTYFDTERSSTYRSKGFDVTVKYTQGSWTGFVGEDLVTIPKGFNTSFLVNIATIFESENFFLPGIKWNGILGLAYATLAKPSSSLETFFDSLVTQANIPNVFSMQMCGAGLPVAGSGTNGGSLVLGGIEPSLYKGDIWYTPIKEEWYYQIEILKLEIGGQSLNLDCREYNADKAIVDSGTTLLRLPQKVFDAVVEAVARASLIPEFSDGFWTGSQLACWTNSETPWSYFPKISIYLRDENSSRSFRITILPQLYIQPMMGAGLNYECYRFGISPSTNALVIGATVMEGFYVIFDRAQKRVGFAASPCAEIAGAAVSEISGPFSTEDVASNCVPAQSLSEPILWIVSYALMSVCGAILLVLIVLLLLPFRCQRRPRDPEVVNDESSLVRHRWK
In words: Inhibition of memapsin 1 catalytic activity (Ki). In kind it is biochemical. As to conditions: memapsin 1, pH 4.0, 37° C.; read-out: M1K. On the procedure:
A substrate peptide NH3-ELDLAVEFWHDR-CO2 (SEQ ID NO.:1) (used for inhibition assay of memapsin 2, memapsin 1, and cathepsin D) was dissolved at 2 mg/ml in DMSO and diluted 1:100 in 0.1 M sodium acetate, pH 4.0 just prior to assay. Inhibitor dissolved in DMSO was diluted into 0.1 M sodium acetate, pH 4.0 (1:100 dilution). A […] aliquot of the inhibitor solution in pH 4 buffer was combined with […] of 0.1 M sodium acetate containing 100-200 nM of memapsin 1, memapsin 2, or cathepsin D. Following a pre-incubation at 37° C., the proteolytic assay was initated by addition of […] of the substrate diluted into pH 4 buffer, and incubation continued at 37° C. Aliquots were removed at time intervals, and combined with an equal volume of MALDI-TOF matrix (α-hydroxycinnamic acid in acetone, 20 mg/ml) and immediately spotted in duplicate onto a stainless-steel MALDI sample plate. MALDI-TOF mass spectrometry was performed on a PE Biosystems Voyager DE instrument at the Molecular Biology Resource Center on campus. The instrument was operated at 25,000 accelerating volts in positive mode with a 150 ns delay. Ions with a mass-to-charge ratio (m/z) were detected in the range of 650-2000 atomic mass units. Data were analyzed by the Voyager Data Explorer module to obtain ion intensity data for mass species of substrates and corresponding products in a given mixture. Relative product formation was calculated as the ratio of signal intensity of the product to the sum of signal intensities of both product and the corresponding substrate. Relative product formed per unit time was obtained from non-linear regression analysis of the data representing the initial 15% formation of product using the model: 1−e^−kT, where k was the relative hydrolytic rate constant and T was time in seconds. Alternatively, relative hydrolytic rates were determined using a fluorogenic cleavage assay (Ermolieff, J. et al., Biochemistry, 39: 12450-12456 (2000)). Initial rates from either method were expressed relative to uninhibited controls and the inhibition constant Ki was determined by a non-linear fit to a tight-binding model of competitive inhibition (Bieth, J., Bayer-Symposium V: Proteinase Inhibitors, pp 463-469, Spinger-Varlag, Berlin (1994)). Results are shown in Table 1 above (M2K, CDK, and M1K columns represent, respectively, the K1 values obtained for memapsin 2, cathepsin D and memapsin 1).

For test [1], the system named is Aβ production in Chinese hamster ovary cells that over-express human APP695 with the London and Swedish mutations. In words: Cellular Aβ IC50 determination (Aβ40 sandwich ELISA). As to conditions: Cricetulus griseus, CHO, 24 h, read-out: Cell, Aβ40, CHO cells over-expressing human APP695 (London and Swedish mutations), 24 h. For orientation: An ELISA detects its analyte on a solid surface through an enzyme-linked reagent.
Experimental: The potency of compounds against memapsin 2 catalytic activity was determined in a cellular assay of Aβ production. […] Compounds are dissolved in DMSO to concentrations near 1 mM, and diluted into culture media to a final concentration near 4 μM (final 0.4% DMSO). Compounds were diluted serially and applied to cells in multi-well plates 48 h after seeding. Incubation was continued in 5% CO2 at 37 degrees C. for 24 h. Aliquots were removed and assayed for Aβ40 content using a sandwich ELISA (BioSource International). Amount of Aβ40 over the range of concentration of compounds, relative to control incubations, were fit to a 4-parameter IC50 model.

Sequence of memapsin 2 (P56817 46-501): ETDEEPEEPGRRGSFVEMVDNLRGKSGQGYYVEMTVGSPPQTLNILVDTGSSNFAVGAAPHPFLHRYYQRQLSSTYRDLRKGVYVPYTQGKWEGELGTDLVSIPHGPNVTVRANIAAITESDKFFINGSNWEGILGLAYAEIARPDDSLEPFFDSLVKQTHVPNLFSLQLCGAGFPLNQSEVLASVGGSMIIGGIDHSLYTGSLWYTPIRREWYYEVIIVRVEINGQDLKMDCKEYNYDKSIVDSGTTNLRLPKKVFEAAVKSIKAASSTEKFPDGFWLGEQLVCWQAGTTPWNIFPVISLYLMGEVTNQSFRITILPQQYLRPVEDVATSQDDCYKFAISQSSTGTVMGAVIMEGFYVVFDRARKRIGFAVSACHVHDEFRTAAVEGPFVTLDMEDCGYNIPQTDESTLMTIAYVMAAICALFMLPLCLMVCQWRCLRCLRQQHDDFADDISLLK

For the compound `CCN(c1cc(C(=O)NC(C)c2ccccc2)cc(C(=O)NC(Cc2ccccc2)C(O)CNCc2cccc(OC)c2)c1)S(C)(=O)=O` (centres unmarked) [5-(N-ethylmethylsulfonamido)-N1-(3-hydroxy-4-(3-methoxybenzylamino)-1-phenylbutan-2-yl)-N3-(1-phenylethyl)isophthalamide], the Ki at memapsin 2 was 301 to 500 nM; on cathepsin D, < 300 nM; at memapsin 1 it was < 300 nM. In addition, the IC50 in test [1] is < 1000 nM.
Regarding `COc1cccc(CNCC(O)C(Cc2ccccc2)NC(=O)c2cc(C(=O)NC(C)c3nc(C)oc3C)cc(N(C)S(C)(=O)=O)c2)c1` (centres unmarked) [N1-(1-(2,5-dimethyloxazol-4-yl)ethyl)-N3-(3-hydroxy-4-(3-methoxybenzylamino)-1-phenylbutan-2-yl)-5-(N-methylmethylsulfonamido)isophthalamide], the Ki on memapsin 2, on cathepsin D and on memapsin 1 was > 501 nM throughout. In test [1], the IC50 lay within 1000 to 5000 nM.
In the case of `COc1cccc(CNCC(O)C(Cc2ccccc2)NC(=O)c2cc(C(=O)NC(C)c3ccc(F)cc3)cc(N(C)S(C)(=O)=O)c2)c1` (centres unmarked) [N1-(1-(4-fluorophenyl)ethyl)-N3-(3-hydroxy-4-(3-methoxybenzylamino)-1-phenylbutan-2-yl)-5-(N-methylmethylsulfonamido)isophthalamide], the Ki at memapsin 2, at cathepsin D and on memapsin 1 was < 300 nM throughout. The IC50 in test [1] is < 1000 nM.
For the compound `CC(NCC(O)C(Cc1ccccc1)NC(=O)c1cc(C(=O)NC(C)c2ccccc2)cc(N(C)S(C)(=O)=O)c1)c1ccccc1` (centres unmarked) [N1-(3-hydroxy-1-phenyl-4-(1-phenylethylamino)butan-2-yl)-5-(N-methylmethylsulfonamido)-N3-(1-phenylethyl)isophthalamide], the Ki is < 300 nM on memapsin 2, < 300 nM on cathepsin D and 301 to 500 nM at memapsin 1. For the same compound, the IC50 in test [1] was < 1000 nM.
As to `Cc1csc(CN(C)C(=O)c2cccc(C(=O)NC(Cc3ccccc3)C(O)CNC(C)c3ccccc3)c2)n1` (centres unmarked) [N1-(3-hydroxy-1-phenyl-4-(1-phenylethylamino)butan-2-yl)-N3-methyl-N3-((4-methylthiazol-2-yl)methyl)isophthalamide], the Ki on memapsin 2 is > 501 nM; on cathepsin D, > 501 nM; at memapsin 1 it was < 300 nM. Moreover, the IC50 in test [1] lay within 1000 to 5000 nM.
On to `CCC(NCC(O)C(Cc1ccccc1)NC(=O)c1cc(C(=O)NC(C)c2ccccc2)cc(N(C)S(C)(=O)=O)c1)c1ccccc1` (centres unmarked) [N1-(3-hydroxy-1-phenyl-4-(1-phenylpropylamino)butan-2-yl)-5-(N-methylmethylsulfonamido)-N3-(1-phenylethyl)isophthalamide], for which the Ki at memapsin 2, on cathepsin D and on memapsin 1 was < 300 nM throughout. For the same compound, the IC50 in test [1] is < 1000 nM.
Turning to `CCC(NCC(O)C(Cc1ccccc1)NC(=O)c1cccc(C(=O)N(C)Cc2nc(C)cs2)c1)c1ccccc1` (centres unmarked) [N1-(3-hydroxy-1-phenyl-4-(1-phenylpropylamino)butan-2-yl)-N3-methyl-N3-((4-methylthiazol-2-yl)methyl)isophthalamide], the Ki is > 501 nM at memapsin 2, < 300 nM on cathepsin D and > 501 nM at memapsin 1. Moreover, in test [1], the IC50 was in the range of 1000 to 5000 nM.
For `Cc1csc(CN(C)C(=O)c2cccc(C(=O)NC(Cc3ccccc3)C(O)CNCc3cccc(C(F)(F)F)c3)c2)n1` (centres unmarked) [N1-(3-hydroxy-1-phenyl-4-(3-(trifluoromethyl)benzylamino)butan-2-yl)-N3-methyl-N3-((4-methylthiazol-2-yl)methyl)isophthalamide], the values for the Ki on memapsin 2, on cathepsin D and on memapsin 1 were < 300 nM, < 300 nM and > 501 nM, respectively. In addition, the IC50 in test [1] is < 1000 nM.
For the compound `CC(NC(=O)c1cc(C(=O)NC(Cc2ccccc2)C(O)CNCc2ccccn2)cc(N(C)S(C)(=O)=O)c1)c1ccccc1` (centres unmarked) [N1-(3-hydroxy-1-phenyl-4-(pyridin-2-ylmethylamino)butan-2-yl)-5-(N-methylmethylsulfonamido)-N3-(1-phenylethyl)isophthalamide], the Ki was < 300 nM at memapsin 2, > 501 nM on cathepsin D and > 501 nM on memapsin 1. Also, the IC50 in test [1] is < 1000 nM.
For the compound `CC(NC(=O)c1cc(C(=O)NC(Cc2ccccc2)C(O)CNCc2cccnc2)cc(N(C)S(C)(=O)=O)c1)c1ccccc1` (centres unmarked) [N1-(3-hydroxy-1-phenyl-4-(pyridin-3-ylmethylamino)butan-2-yl)-5-(N-methylmethylsulfonamido)-N3-(1-phenylethyl)isophthalamide], the Ki on memapsin 2 is < 300 nM; on cathepsin D, > 501 nM; at memapsin 1, 301 to 500 nM. Also, the IC50 in test [1] was < 1000 nM.
The corresponding values for `CC(NC(=O)c1cc(C(=O)NC(Cc2ccccc2)C(O)CNCc2ccncc2)cc(N(C)S(C)(=O)=O)c1)c1ccccc1` (centres unmarked) [N1-(3-hydroxy-1-phenyl-4-(pyridin-4-ylmethylamino)butan-2-yl)-5-(N-methylmethylsulfonamido)-N3-(1-phenylethyl)isophthalamide] are < 300 nM, > 501 nM, 301 to 500 nM and < 1000 nM.
The corresponding values for `COc1cccc(C(C)NCC(O)C(Cc2ccccc2)NC(=O)c2cc(C(=O)NC(C)c3ccccc3)cc(N(C)S(C)(=O)=O)c2)c1` (centres unmarked) [N1-(3-hydroxy-4-(1-(3-methoxyphenyl)ethylamino)-1-phenylbutan-2-yl)-5-(N-methylmethylsulfonamido)-N3-(1-phenylethyl)isophthalamide] are < 300 nM, < 300 nM, < 300 nM and < 1000 nM.
Taken in the same sequence, the figures for `CC(NC(=O)c1cc(C(=O)NC(Cc2ccccc2)C(O)CNCc2ccccc2O)cc(N(C)S(C)(=O)=O)c1)c1ccccc1` (centres unmarked) [N1-(3-hydroxy-4-(2-hydroxybenzylamino)-1-phenylbutan-2-yl)-5-(N-methylmethylsulfonamido)-N3-(1-phenylethyl)isophthalamide] were < 300 nM, < 300 nM, < 300 nM and < 1000 nM.
In the case of `COc1ccccc1CNCC(O)C(Cc1ccccc1)NC(=O)c1cc(C(=O)NC(C)c2ccccc2)cc(N(C)S(C)(=O)=O)c1` (centres unmarked) [N1-(3-hydroxy-4-(2-methoxybenzylamino)-1-phenylbutan-2-yl)-5-(N-methylmethylsulfonamido)-N3-(1-phenylethyl)isophthalamide], the Ki on memapsin 2 is < 300 nM; at cathepsin D it was < 300 nM; on memapsin 1, 301 to 500 nM. In addition, in test [1], the IC50 was < 1000 nM.
Take `COc1cccc(CNCC(O)C(Cc2ccccc2)NC(=O)c2cc(C(=O)NC(C)c3ccccc3)cc(N(C)S(C)(=O)=O)c2)c1` (centres unmarked) [N1-(3-hydroxy-4-(3-methoxybenzylamino)-1-phenylbutan-2-yl)-5-(N-methylmethylsulfonamido)-N3-(1-phenylethyl)isophthalamide]: the Ki on cathepsin D and at memapsin 1 was < 300 nM in each case. In test [1], the IC50 was < 1000 nM.
`Cc1nc(CNCC(O)C(Cc2ccccc2)NC(=O)c2cc(C(=O)NC(C)c3ccccc3)cc(N(C)S(C)(=O)=O)c2)c(C)o1` (centres unmarked) [N1-(4-((2,5-dimethyloxazol-4-yl)methylamino)-3-hydroxy-1-phenylbutan-2-yl)-5-(N-methylmethylsulfonamido)-N3-(1-phenylethyl)isophthalamide]: the Ki on cathepsin D and on memapsin 1 was > 501 nM each time. The IC50 in test [1] is 1000 to 5000 nM.
